PMC9143577, “Cationic Geminoid Peptide Amphiphiles Inhibit DENV2 Protease, Furin, and Viral Replication” (Molecules, 2022)
“Also recorded” adds a separate entry of the source. Where a SMILES comes first, the peptide text is derived from it. The star is where a group is joined. Palmitoyl = CCCCCCCCCCCCCCCC(=O)*; NHhexadecyl = CCCCCCCCCCCCCCCCN*; AMC = Cc1cc(=O)oc2cc(N*)ccc12; Cbz = O=C(OCc1ccccc1)*

How the values were obtained:
human furin [1] = molecular target: T1, human furin (Homo sapiens, UniProt P09958); assay: Furin inhibition assay with MCA substrate (Ac-RVRR-MCA); type: biochemical; conditions: 0.76 nM furin, pH 7.0, 37 °C, read-out: IC50 (MCA Substrates) Furin
Excerpt: Enzyme expression and purification
DENV2 Protease Preparation. The enzyme was expressed and purified as previously described (ref. S1). […]
subjected to sonication, and centrifuged again. The supernatant was collected and passed […]
Human Furin Preparation. The enzyme was expressed and purified as previously described (ref. S3). Briefly, The PCMV-Fur_S vector containing cDNA […]
Human furin was purifi ed […]
substrate Abz-[…]- EDDnp.
Target sequence in this assay (P09958 108-576 limits assumed): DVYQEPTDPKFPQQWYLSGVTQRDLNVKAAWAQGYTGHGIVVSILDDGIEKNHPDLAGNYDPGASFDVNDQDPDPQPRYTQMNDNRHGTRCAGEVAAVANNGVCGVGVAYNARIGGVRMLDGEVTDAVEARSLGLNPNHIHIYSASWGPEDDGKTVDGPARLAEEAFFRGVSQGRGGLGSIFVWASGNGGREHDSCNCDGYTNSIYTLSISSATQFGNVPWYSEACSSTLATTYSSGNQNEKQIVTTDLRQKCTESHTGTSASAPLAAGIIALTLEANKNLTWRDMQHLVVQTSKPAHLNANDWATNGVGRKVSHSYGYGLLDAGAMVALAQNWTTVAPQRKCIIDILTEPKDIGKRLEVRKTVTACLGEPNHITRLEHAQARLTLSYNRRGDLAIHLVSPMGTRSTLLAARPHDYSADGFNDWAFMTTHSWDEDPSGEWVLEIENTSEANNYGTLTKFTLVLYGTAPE

DENV2 replicon = conditions: DENV2 HeLa replicon cells treated for 2 days; for inhibition of luciferase activity (DENV2 replicon): 10 µM
Description: (§1) To investigate the effect of geminoids on viral replication, we used HeLa cells containing a DENV2 replicon. Instead of the structural proteins of DENV2, the replicon encodes a luciferase reporter that can be used as a readout for DENV2 protease dependent virus replication. Cell viability was assessed on the same cells using a colourimetric assay based on 3-(4,5-dimethylthiazol-2-yl)-5-(3-carboxymethoxyphenyl)-2H-tetrazolium (MTS) reduction, and by light microscopy. […] The viability of unmodified HeLa cells after treatment with these compounds was also tested in a separate experiment using the Celltiter Blue Viability Assay (Promega, see Supporting Information) in the concentration range of 0.8–50 μM.
(§2) The replicon assay was carried out as described earlier using HeLa cells that contain a stably replicating DENV2 replicon expressing a luciferase reporter gene. The amphiphilic inhibitors were added as concentrated solutions in DMSO; the same amount of DMSO was used as the blank experiment, with the viral inhibitor ribavirin as a positive control. Luciferase activity and cell viability were assessed as described previously.

[2] = test system: wildtype DENV2 (DENV2 NGC); type: cell-based, DENV2 New Guinea strain; conditions: percentage of infected cells, 2 days after infection; for EC50: LLC-MK2 cells, read-out: DENV Replication in LLC-MK2 Cells EC50
Description: LLC-MK2 (Monkey Rhesus Kidney cells; CCL-7.1) were passaged in assay medium (EMEM (Lonza Cat No: BESP069F) supplemented with 10% heat-inactivated FCS (Lonza), 2% Pen/strep (Gibco), 2% L-Glutamine (Gibco), 2% Hepes (Lonza), and 1% sodium bicarbonate (Lonza)) prior to use in the antiviral assay. Cells were seeded in 96-well plates (10^5 cells/well) in assay medium to be exposed 16–24 h later to compounds and viruses. The plates were incubated at 37 °C/5% CO2 overnight to allow for cell adherence.
Compounds were solubilized in DMSO and evaluated using two-fold serial dilutions (8-points dose-response curves starting at a concentration of 50 µM) in duplicate for the antiviral assays. Compounds were diluted in assay medium at 1× test concentrations. Ribavirin (Sigma Aldrich, Amsterdam, The Netherlands) was evaluated as a positive control compound in the antiviral assays.
DENV2 New Guinea strain was grown in AP-61 insect cells (in-house cell bank) in complete Leibovitz medium containing 1% pen/strep (Gibco), 1% L-glutamin (Gibco), 0.5% Hepes (Lonza), 0.5% sodium bicarbonate (Lonza), and 10% tryptose phosphate for the production of stock virus pools. On the day of cellular infection, an aliquot of virus was removed from the freezer (−80 °C) and allowed to thaw in water in a biological safety cabinet. Virus was diluted into assay medium (10^4 TCID50), and 100 µL of this was added to each well, resulting in a TCID50 of 100. Cells were incubated for 2 h at 37 °C/5% CO2 and washed 3 times with blank assay medium. Directly after washing, 100 µL of the compound dilutions were added to each well.
Each plate contained cell control wells (cells only), virus control wells (cells plus virus), duplicate drug toxicity wells per compound (cells plus drug only), as well as duplicate experimental wells (drug plus cells plus virus).
Virus-infected cells were visualised using a DENV2 immunoperoxidase staining protocol. Two days after infection, cells were inactivated with ethanol 70% for 30 min and washed with PBS. Fixed plates were incubated with PBS containing 0.05% H2O2 for 20 min at 37 °C and washed again 3 times with PBS. Plates were incubated for 1 h with 50 µL monoclonal anti-DENV-2 NS1 antibody (Millipore; diluted 1:500 in EMEM). Samples were washed once with PBS containing 0.05% Tween20 and twice with PBS only. Secondary polyclonal goat anti-mouse IgG HRP (Dako; diluted 1:2000) was added 50 µL per well and incubated for 1 h at 37 °C in the dark. […] Bidest water was added after removal of the substrate solution, and all virus-positive cells per well (marked by brown/red staining) were counted under a microscope. […]

[3] = Critical micelle concentration by pyrene fluorescence; type: physicochemical; conditions: pure water
Description: Pyrene was used as a probe to study the changes in its fluorescence, in particular the ratio (I1/I3) of the intensities I1 and I3 […] 373 and 383 nm, respectively. An abrupt change in this ratio with increasing surfactant concentration points to an increase in hydrophobicity of the environment of the probe corresponding to the formation of aggregates. See Supporting Information for details.
Determ ination of the critical m icelle concentrat ion (CMC)
A solution of 5 mg pyrene in methanol (10 mL) was prepared and diluted 20 times. 50 µ L from the dil uted solution was added to geminoid solutions in water to a final volume of 3 mL. The geminoid samples were made from a stock solution of 500 µ M in water in a concentration range from 5 to 200 µ M. The fluorescence spectra were then measured after 1 hour wi th the […] set to 334 nm and emission range 350- 500 nm, excitation slit […], emission slit […] and at 25 °C. The ratio of the intensities was then plotted against the geminoid concentration, and the CMC is calculated from the intersection point of the best fits to the data points below and above it (Fig ure S5).
(§3) Concentration (µM) Concentration (µM)
Concentration (µM)Concentration (µM) Concentration (µM)Concentration (µM)
(1 picture or pasted object on this page, not shown here)

trypsin [4] = assay: Trypsin inhibition assay with Z-FR-MCA; type: biochemical; conditions: 4 nM trypsin, 11.4 μM Z-FR-MCA; 100 mM Tris.HCl, pH 8.0, 10 mM CaCl2; read-out: IC50 (MCA Substrates) Trypsin
Description: The assay was carried out in 100 mM Tris.HCl, 10 mM CaCl2, pH 8.0, with 4 nM enzyme and 11.4 µM Z-FR-MCA substrate.

[5] = test system: DENV2 HeLa replicon cells; conditions: 2 days, 0.3 to 10 µM
Description: as §1, §2

HeLa cells (wildtype) = assay: Celltiter Blue Viability Assay on unmodified HeLa cells; conditions: 24 h, 0.8–50 μM, highest concentration
Description: as §1, §3

DENV2 protease = DENV2 protease (Dengue virus type 2, UniProt P14340); parameters: the vector with CF40 fused to NS3pro was used; hexahistidine (N); made in house; host or cells: E. coli strain SG13009; method as in PMID 17184724; conditions: ref [23], cited from earlier work
[6] = molecular target: DENV2 protease (NS2B-NS3 construct CF40-…-NS3) (dengue virus serotype 2)
trypsin [7] = molecular target: trypsin
human furin [8] = molecular target: T1, human furin
Target sequence in this assay (P09958 27-794): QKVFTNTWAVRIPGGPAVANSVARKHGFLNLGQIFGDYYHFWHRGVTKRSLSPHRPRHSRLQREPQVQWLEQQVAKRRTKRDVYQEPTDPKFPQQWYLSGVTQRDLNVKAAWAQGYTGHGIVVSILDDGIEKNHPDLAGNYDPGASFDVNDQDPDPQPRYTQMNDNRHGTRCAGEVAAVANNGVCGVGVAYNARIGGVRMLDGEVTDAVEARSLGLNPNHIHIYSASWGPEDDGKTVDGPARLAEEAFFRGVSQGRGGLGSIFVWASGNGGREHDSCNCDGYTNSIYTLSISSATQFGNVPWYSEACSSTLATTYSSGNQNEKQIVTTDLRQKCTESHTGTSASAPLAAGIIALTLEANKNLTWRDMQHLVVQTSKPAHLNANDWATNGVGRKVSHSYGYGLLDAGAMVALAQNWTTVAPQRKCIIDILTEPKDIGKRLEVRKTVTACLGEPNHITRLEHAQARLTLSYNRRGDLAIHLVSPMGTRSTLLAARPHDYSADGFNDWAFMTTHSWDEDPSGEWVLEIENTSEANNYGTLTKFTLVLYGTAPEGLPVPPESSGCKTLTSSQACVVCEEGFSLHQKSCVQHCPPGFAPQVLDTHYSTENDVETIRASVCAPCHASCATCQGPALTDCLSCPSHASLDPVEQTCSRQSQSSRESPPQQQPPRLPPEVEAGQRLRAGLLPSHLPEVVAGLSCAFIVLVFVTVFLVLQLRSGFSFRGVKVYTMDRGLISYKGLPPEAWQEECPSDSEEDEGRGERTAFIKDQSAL

DENV2 protease, sequence (P14340 1476-1653): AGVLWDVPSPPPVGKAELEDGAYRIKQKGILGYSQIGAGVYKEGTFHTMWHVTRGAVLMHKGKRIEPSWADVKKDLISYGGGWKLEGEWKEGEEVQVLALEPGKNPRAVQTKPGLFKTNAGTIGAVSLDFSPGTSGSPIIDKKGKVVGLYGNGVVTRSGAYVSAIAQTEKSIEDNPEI
DENV2 protease, sequence (P14340 1398-1437): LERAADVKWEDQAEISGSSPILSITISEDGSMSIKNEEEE

Q: What does the source list for `CCCCCCCCCCCCCCCCNC(=O)[C@H](CCCCN)NC(=O)[C@H](C)NC(=O)[C@H](CCCCN)NC(=O)CCCCCCCCCCCCCCC` [Compound 2a, C15H31C(O)-Lys-(Ala)-Lys-NHC16H33.2TFA]?
A: IC50 (human furin [1]): 3.57 ± 0.18 µM; reduction of luciferase activity (DENV2 replicon; 3 µM): 39%; inhibition of luciferase activity (DENV2 replicon) (DENV2 replicon): 62%; EC50 [2]: 4.1 ± 1.5 µM; CMC (Critical Micelle Concentration) [3]: 48 to 58 µM; IC50 (trypsin [4]): 17.2 ± 0.66 µM

Q: Which IC50 (human furin [1]) does the source give for `CCCCCCCCCCCCCCCCNC(=O)[C@H](CCCCN)NC(=O)[C@H](C)NC(=O)[C@H](C)NC(=O)[C@H](CCCCN)NC(=O)CCCCCCCCCCCCCCC` [Compound 2b, C15H31C(O)-Lys-(Ala)2-Lys-NHC16H33.2TFA] (Palmitoyl-KAAK-NHhexadecyl) here?
A: Its IC50 is 2.14 ± 0.1 µM.

Q: What about the “inhibition of luciferase activity (DENV2 replicon)” value (DENV2 replicon) of the same molecule?
A: Its value is 47%.

Q: What about the EC50 [2] of the same molecule?
A: Its EC50 is 3.1 ± 0.7 µM.

Q: What about the “CMC (Critical Micelle Concentration)” value [3] of the same molecule?
A: The value was 41 µM.

Q: What about the IC50 (trypsin [4]) of the same molecule?
A: Its IC50 is 20.9 ± 0.34 µM.

Q: With `CCCCCCCCCCCCCCCCNC(=O)[C@H](CCCCN)NC(=O)CNC(=O)CNC(=O)[C@H](CCCCN)NC(=O)CCCCCCCCCCCCCCC` [Compound 3b] (Palmitoyl-KGGK-NHhexadecyl) as the molecule, how does the “cell viability (MTS assay), relative to DMSO control” value [5] read?
A: Its value is “considerable cytotoxicity”.

Q: And the “DENV Replication in LLC-MK2 Cells EC50” value [2]?
A: Its value is “not active”.

Q: What about the “toxicity in Celltiter Blue Viability Assay” value (HeLa cells (wildtype)) of the same molecule?
A: Its value is “slight toxicity; also recorded: slight toxicities”.

Q: What about the “CMC (Critical Micelle Concentration)” value [3] of the same molecule?
A: Its value is 30 µM.

Q: Which results are given for Cbz-Arg-Arg-{AMC}?
A: kcat for hydrolysis of the substrate (DENV2 protease): 0.11 s⁻¹; Km (DENV2 protease; read-out: KM for hydrolysis of the substrate): 247 µM

B1: C15H31C(O)-Lys-(Ala)2-Lys-NHC16H33 (C16-KA2K-C16) (peptide)
peptide: Palmitoyl-KAAK-NHhexadecyl
SMILES: CCCCCCCCCCCCCCCCNC(=O)[C@H](CCCCN)NC(=O)[C@H](C)NC(=O)[C@H](C)NC(=O)[C@H](CCCCN)NC(=O)CCCCCCCCCCCCCCC
Q: For B1, which IC50 of inhibition of DENV2 protease activity (20 nM enzyme, substrate Z-RR-MCA, 50 mM Tris.HCl pH 9.0, 20% glycerol, 37 °C) [6] is on record?
A: The IC50 of inhibition of DENV2 protease activity (20 nM enzyme, substrate Z-RR-MCA, 50 mM Tris.HCl pH 9.0, 20% glycerol, 37 °C) was 0.8 µM.

Q: And the IC50 of inhibition of DENV2 protease activity (50 µM Tyr(3-NO2) substrate, 50 mM Tris.HCl pH 9.0, 10% ethylene glycol, 0.0016% Brij 58) [6]?
A: Its IC50 of inhibition of DENV2 protease activity (50 µM Tyr(3-NO2) substrate, 50 mM Tris.HCl pH 9.0, 10% ethylene glycol, 0.0016% Brij 58) is 1.4 µM.

Q: And the IC50 of inhibition of trypsin activity (4 nM trypsin, 11.4 µM Z-FR-MCA, 100 mM Tris.HCl pH 8.0, 10 mM CaCl2) (trypsin [7])?
A: Its IC50 of inhibition of trypsin activity (4 nM trypsin, 11.4 µM Z-FR-MCA, 100 mM Tris.HCl pH 8.0, 10 mM CaCl2) is 20.9 µM.

Q: And the IC50 of inhibition of furin activity (0.76 nM furin, substrate Ac-RVRR-MCA, 10 mM MES pH 7.0, 37 °C) (human furin [8])?
A: Its IC50 of inhibition of furin activity (0.76 nM furin, substrate Ac-RVRR-MCA, 10 mM MES pH 7.0, 37 °C) is 2.14 µM.

B2: C15H31C(O)-Lys-(Gly)2-Lys-NHC16H33 (C16-KG2K-C16) (peptide)
peptide: Palmitoyl-KGGK-NHhexadecyl
SMILES: CCCCCCCCCCCCCCCCNC(=O)[C@H](CCCCN)NC(=O)CNC(=O)CNC(=O)[C@H](CCCCN)NC(=O)CCCCCCCCCCCCCCC
Q: What does the source list for B2?
A: IC50 of inhibition of DENV2 protease activity (20 nM enzyme, substrate Z-RR-MCA, 50 mM Tris.HCl pH 9.0, 20% glycerol, 37 °C) [6]: 3.69 µM; IC50 of inhibition of DENV2 protease activity (50 µM Tyr(3-NO2) substrate, 50 mM Tris.HCl pH 9.0, 10% ethylene glycol, 0.0016% Brij 58) [6]: 10.2 µM
